Our source for the EC50, IC50 and selectivity ratio values is ChEMBL document CHEMBL4414578, “Design and synthesis of pentacyclic triterpene conjugates and their use in medicinal research” (Eur J Med Chem, 2019).

In data set [1] the test system is Human immunodeficiency virus 1. Put plainly: Antiviral activity against HIV-1 NL4-3 infected in human MT-4 cells. Format: functional, organism-based. The settings on record: Human immunodeficiency virus 1, NL4-3, MT4.
Another data set concerns A549. Put plainly: Antitumor activity against human A549 cells by SRB assay. The data set is classed as functional, cell-based.
The next data set deals with A2780. Put plainly: Antitumor activity against human A2780 cells by SRB assay. The data set is classed as functional, cell-based.
For the next data set, the system named is 8505C. Put plainly: Antitumor activity against human 8505C cells by SRB assay. Format: functional, cell-based. For orientation: In SRB staining, fixed cells bind dye roughly in proportion to their protein.
For a further data set, the system named is 518A2. Briefly: Antitumor activity against human 518A2 cells by SRB assay. The data set is classed as functional, cell-based.
Another data set relates to MCF7. Briefly: Antitumor activity against human MCF7 cells by SRB assay. Format: functional, cell-based.
For the next data set, the system named is P815. Put plainly: Cytotoxicity against mouse P815 cells assessed as reduction in cell viability after 48 hrs by MTT assay. The settings on record: P815, 48 h. The data set is classed as functional, cell-based.
The next data set relates to Ehrlich. Put plainly: Cytotoxicity against mouse Ehrlich carcinoma cells assessed as reduction in cell viability after 48 hrs by MTT assay. Format: functional, cell-based. A general note: Formazan colour is commonly taken as a measure of viable cells.
The test system of another data set is CCRF-CEM. Briefly: Cytotoxicity against human CCRF-CEM cells assessed as reduction in cell viability. The data set is classed as functional, cell-based.
The test system of another data set is DU-145. Put plainly: Cytotoxicity against human DU145 cells assessed as reduction in cell viability after 72 hrs by MTT assay. Format: functional, cell-based. The settings on record: DU-145, 72 h.
The next data set concerns L132. Put plainly: Cytotoxicity against human L-132 cells assessed as reduction in cell viability after 72 hrs by MTT assay. The data set is classed as functional, cell-based. The settings on record: L132, 72 h.
A further data set deals with PA-1. Briefly: Cytotoxicity against human PA1 cells assessed as reduction in cell viability after 72 hrs by MTT assay. To be noted: PA-1, 72 h. The data set is classed as functional, cell-based.
In another data set the test system is HT-29. Put plainly: Cytotoxicity against human HT-29 cells assessed as reduction in cell viability after 72 hrs by MTT assay. Format: functional, cell-based. The settings on record: HT-29, 72 h.
A further data set relates to Leishmania infantum. Put plainly: Antileishmanial activity against Leishmania infantum promastigotes after 2 to 24 hrs by Giemsa staining-based microscopic analysis. Format: functional, organism-based.
In a further data set the test system is Plasmodium falciparum. Put plainly: Antimalarial activity against chloroquine-sensitive Plasmodium falciparum 3D7 by flow cytometry analysis. Format: functional, organism-based. A general note: Flow cytometry measures light scatter and fluorescence of single cells or particles in a stream.
In the next data set the test system is HEK-293T. Put plainly: Cytotoxicity against HEK293T cells assessed as reduction in cell viability. To be noted: Homo sapiens. The data set is classed as cell-based.
The nature of data set [2]: Selectivity index, ratio of IC50 for HEK293T cells tobIC50 for chloroquine-sensitive Plasmodium falciparum 3D7. Format: toxicity. The settings on record: human, read-out: Ratio IC50.
Data set [3] relates to Human immunodeficiency virus 1. Put plainly: Antiviral activity against HIV-1. The data set is classed as functional, organism-based.
For data set [4], the system named is Human immunodeficiency virus 1. Briefly: Antiviral activity against HIV-1 3B. The settings on record: Human immunodeficiency virus 1, 3B. The data set is classed as functional, organism-based.

The EC50 is the concentration giving half of the maximal effect. As usually defined, the IC50 is the concentration that gives 50% inhibition.

Turning to `C=C(C)[C@@H]1CC[C@]2(C(=O)OCc3cn([C@H]4C[C@H](n5cc(C)c(=O)[nH]c5=O)O[C@@H]4CO)nn3)CC[C@]3(C)[C@H](CC[C@@H]4[C@@]5(C)CC[C@H](OC(=O)CC(C)(C)C(=O)O)C(C)(C)[C@@H]5CC[C@]43C)[C@@H]12`, a half-maximal response in [1] (EC50) required 0.1 µM.

For `C=C(C)[C@@H]1CC[C@]2(C(=O)NCCNCCN)CC[C@]3(C)[C@H](CC[C@@H]4[C@@]5(C)CC[C@H](OC(C)=O)C(C)(C)[C@@H]5CC[C@]43C)[C@@H]12`, the IC50 in the data set on A549, with A2780, in the data set on 8505C, in the data set with 518A2 and in the data set with MCF7 was 1.4 to 2.24 µM each time.

Turning to `CC(=O)O[C@H]1C(CCC[P+](c2ccccc2)(c2ccccc2)c2ccccc2)C[C@]2(C)[C@H]3CC[C@@H]4[C@H]5[C@H](C(C)C)CC[C@]5(C(=O)O)CC[C@@]4(C)[C@]3(C)CC[C@H]2C1(C)C` (some centres undefined), the IC50 in the data set on P815 and in the data set on Ehrlich was 1.1 to 4.7 µM throughout.

In the case of `C=C(/C=N/N=C/c1ccccn1)[C@@H]1CC[C@]2(C(=O)O)CC[C@]3(C)[C@H](CC[C@@H]4[C@@]5(C)CC[C@H](O)C(C)(C)[C@@H]5CC[C@]43C)[C@@H]12`, the IC50 with CCRF-CEM was 3.8 to 4.8 µM.

Regarding `C=C(C)[C@@H]1CC[C@]2(C(=O)O)CC[C@]3(C)[C@H](CC[C@@H]4[C@@]5(C)CC/C(=N\Nc6ccccc6)C(C)(C)[C@@H]5CC[C@]43C)[C@@H]12`, the IC50 in the data set on DU-145, in the data set on L132, in the data set on PA-1 and with HT-29 was 1 to 4 µM throughout.

Turning to `C=C(C)[C@@H]1CC[C@]2(C(=O)NCCN)CC[C@]3(C)[C@H](CC[C@@H]4[C@@]5(C)CC[C@H](O)C(C)(C)[C@@H]5CC[C@]43C)[C@@H]12`, in the data set on CCRF-CEM, the IC50 turned out to be 0.7 µM.

`C=C(C)[C@@H]1CC[C@]2(C(=O)O)CC[C@]3(C)[C@H](CC[C@@H]4[C@@]5(C)CC/C(=N\NC(C)=O)C(C)(C)[C@@H]5CC[C@]43C)[C@@H]12`: the concentration for half-maximal inhibition (IC50) with DU-145, in the data set with L132, in the data set on PA-1 and in the data set with HT-29 was 1 to 4 µM each time.

Compound `C=C(CC=O)[C@@H]1CC[C@]2(COC(=O)n3ccnc3)CC[C@]3(C)[C@H](CC[C@@H]4[C@@]5(C)CC[C@H](O)C(C)(C)[C@@H]5CC[C@]43C)[C@@H]12` had an IC50 with Leishmania infantum of 51 µM.

Turning to `C=C(/C=N/N=C/c1ccccc1[N+](=O)[O-])[C@@H]1CC[C@]2(C(=O)O)CC[C@]3(C)[C@H](CC[C@@H]4[C@@]5(C)CC[C@H](O)C(C)(C)[C@@H]5CC[C@]43C)[C@@H]12`, the IC50 in the data set with CCRF-CEM lay in the range of 3.8 to 4.8 µM.

In the case of `C=C(C)[C@@H]1CC[C@]2(C(=O)N3CCNCC3)CC[C@]3(C)[C@H](CC[C@@H]4[C@@]5(C)CC[C@H](O)C(C)(C)[C@@H]5CC[C@]43C)[C@@H]12`, in the data set with CCRF-CEM, the IC50 came to 0.8 µM.

Take `C=C(C)[C@@H]1CC[C@]2(C(=O)O)CC[C@]3(C)[C@H](CC[C@@H]4[C@@]5(C)CC/C(=N\Nc6ccc(F)cc6)C(C)(C)[C@@H]5CC[C@]43C)[C@@H]12`: the IC50 in the data set on DU-145, in the data set with L132, with PA-1 and with HT-29 was 1 to 4 µM each time.

As for `CC(=O)O[C@H]1C(CCC[P+](c2ccccc2)(c2ccccc2)c2ccccc2)C[C@]2(C)[C@H]3CC[C@@H]4[C@H]5[C@H](C(C)C)CC[C@]5(C(=O)OCc5ccccc5)CC[C@@]4(C)[C@]3(C)CC[C@H]2C1(C)C` (some centres undefined), the half-maximal inhibitory concentration (IC50) with P815 and in the data set with Ehrlich was 1.1 to 4.7 µM each time.

For the compound `COC(=O)[C@]12CC[C@@H](C(C)C)[C@@H]1[C@H]1CC[C@@H]3[C@@]4(C)CC(CCC[P+](c5ccccc5)(c5ccccc5)c5ccccc5)[C@@H](OC(C)=O)C(C)(C)[C@@H]4CC[C@@]3(C)[C@]1(C)CC2` (some centres undefined), the IC50 in the data set on P815 and with Ehrlich was 1.1 to 4.7 µM throughout.

Turning to `C=C(/C=N/N=C/c1ccccc1O)[C@@H]1CC[C@]2(C(=O)O)CC[C@]3(C)[C@H](CC[C@@H]4[C@@]5(C)CC[C@H](O)C(C)(C)[C@@H]5CC[C@]43C)[C@@H]12`, the IC50 with CCRF-CEM lay within 3.8 to 4.8 µM.

Turning to `C=C(C)[C@@H]1CC[C@]2(C(=O)NCCCN3CCN(CCCN)CC3)CC[C@]3(C)[C@H](CC[C@@H]4[C@@]5(C)CC[C@H](OC(C)=O)C(C)(C)[C@@H]5CC[C@]43C)[C@@H]12`, the IC50 is 0.22 µM with Plasmodium falciparum and 4 µM with HEK-293T. In addition, in [2], the selectivity ratio was 23.

With `C=C(C)[C@@H]1CC[C@]2(C(=O)OCCCCCCCC(=O)N[C@@H](CC(C)C)[C@@H](O)CC(=O)O)CC[C@]3(C)[C@H](CC[C@@H]4[C@@]5(C)CC[C@H](O)C(C)(C)[C@@H]5CC[C@]43C)[C@@H]12`, the midpoint of inhibition in data set [3], the IC50, lay at 0.05 µM.

Regarding `COC(=O)[C@]12CC[C@@H](C(C)C)[C@@H]1[C@H]1CC[C@@H]3[C@@]4(C)CC(CCC[P+](c5ccccc5)(c5ccccc5)c5ccccc5)[C@H](OC(C)=O)C(C)(C)[C@@H]4CC[C@@]3(C)[C@]1(C)CC2` (some centres undefined), the half-inhibitory concentration (IC50) in the data set with P815 and with Ehrlich was 1.1 to 4.7 µM throughout.

As to `C=C(C)[C@@H]1CC[C@]2(C(=O)O)CC[C@]3(C)[C@H](CC[C@@H]4[C@@]5(C)CC/C(=N\Nc6c(Cl)cc(Cl)cc6Cl)C(C)(C)[C@@H]5CC[C@]43C)[C@@H]12`, the IC50 with DU-145, with L132, in the data set on PA-1 and in the data set on HT-29 was 1 to 4 µM each time.

`C=C(CO)[C@@H]1CC[C@]2(C(=O)OCCCCCCCCCCC(=O)O)CC[C@]3(C)[C@H](CC[C@@H]4[C@@]5(C)CC[C@H](O)C(C)(C)[C@@H]5CC[C@]43C)[C@@H]12` displayed an IC50 in [3] of 0.05 µM.

For `C=C(C)[C@@H]1CC[C@]2(C(=O)n3ccnc3)CC[C@]3(C)[C@H](CC[C@@H]4[C@@]5(C)C=C(OC(=O)n6ccnc6)C(=O)C(C)(C)[C@@H]5CC[C@]43C)[C@@H]12`, the IC50 in the data set on Leishmania infantum is 26 µM.

For the compound `C=C(C)[C@@H]1CC[C@]2(C(=O)O)CC[C@]3(C)[C@H](CC[C@@H]4[C@@]5(C)CC[C@H](O)C(C)(C)[C@@H]5CC[C@]43C)[C@@H]12` [BETULINIC ACID], the IC50 with P815 was 41 µM; with Ehrlich, 54 µM; in the data set on A549, 0.33 to 1.34 µM; in the data set with A2780 it was 0.33 to 1.34 µM; with 8505C it was 0.33 to 1.34 µM; in the data set on 518A2 it was 0.33 to 1.34 µM. Further, the IC50 in the data set with MCF7 was 0.33 to 1.34 µM.

Take `CCCCCCCCCCCCCCCCOP(=O)([O-])OCC[N+](C)(C)C` [MILTEFOSINE]: in data set [4], the concentration giving a half-maximal response (EC50) lay within 0.01 to 0.33 µM. Moreover, the IC50 in the data set with Leishmania infantum was determined as 6 µM.

Compound `CC1(C)CC[C@]2(C(=O)O)CC[C@]3(C)C(=CC[C@@H]4[C@@]5(C)CC[C@H](O)C(C)(C)[C@@H]5CC[C@]43C)[C@@H]2C1` [OLEANOLIC_ACID] gave an EC50 in data set [4] of 0.01 to 0.33 µM.

`C[C@H]1[C@H](C)CC[C@]2(C(=O)O)CC[C@]3(C)C(=CC[C@@H]4[C@@]5(C)CC[C@H](O)C(C)(C)[C@@H]5CC[C@]43C)[C@H]12` [URSOLIC ACID] yielded an EC50 in data set [4] of 0.01 to 0.33 µM.

`Cc1cn([C@H]2C[C@H](N=[N+]=[N-])[C@@H](CO)O2)c(=O)[nH]c1=O` [ZIDOVUDINE] showed an EC50 in data set [1] of 0.1 µM.
